From US20250319095A1, “USE OF BENZO[…] INCREASE SENSITIVITY TO […] A CHRONIC SSRI REGIMEN” (Compass Pathfinder Limited, priority 2020, published 2025)
Several values for one entry are separate records, joined by “and”; a condition that tells them apart may be missing. Equal values may be shown once.

Assays:
[1] = oral dose equivalence; cited from earlier work
5HT2A = molecular target: T1, 5HT2A (Mus musculus, UniProt P35363); experiment: [3H]MDL100907 binding in frontal cortical membranes (5HT2A Kd and Bmax)
T1 construct: homogenates were prepared from frontal cortices sampled from groups E and F; from tissue; host or cells: mouse frontal cortex membranes (homogenate)
Procedure: To prepare the homogenate, frontal cortices from each animal were homogenized individually in 40 volumes (w/v) of ice cold assay buffer using a tight-fitting glass/Teflon homogenizer and centrifuged at 39,500×g for 10 min. The supernatant was discarded, and the pellet re-suspended in 40 volumes (w/v) of assay buffer and the tissue washed by centrifugation two more times. The final pellet was re-suspended in ice-cold assay buffer to 6.25 mg weight wet of tissue/ml and used immediately in the binding assay. Aliquots of final membrane preparations were also stored at −80 C until required for protein determination. All centrifugations will be carried out at 4° C.
To examine binding, the frontal cortical membranes (400 μl; equivalent to 2.5 mg wet weight of tissue/tube) were incubated with 50 μl of [3H] MDL 100907 (8 concentrations: 0.025, 0.05, 0.1, 0.2, 0.4, 0.8, 1.6, 3.2 nM) and either 50 μl of buffer (total binding) or 50 μl of 10 μM ketanserin (to define nonspecific binding) for 60 min at 25 C. […]
Membrane bound radioactivity was recovered by filtration under vacuum through Skatron 11731 filters, presoaked in 0.5% polyethylenimine (PEI) using a Skatron cell harvester. Filters were rapidly washed with ice cold wash buffer (wash setting 9,9,0) and radioactivity determined by liquid scintillation counting (1 ml Packard MV Gold scintillator). […]

male C57BL/6J mice = experiment: Psilocybin head twitch response with chronic diazepam pre-treatment; format: in vivo
Procedure: Sixty-two (60 plus 2 spares;) male C57BL/6J mice (20-25 g upon arrival) were purchased from Charles River UK. Animals were group housed (in 3 s and a pair) in polypropylene cages. Mice were maintained on a normal phase 12 h light-dark cycle (lights on: 07:00-19:00 h) with free access to standard rodent maintenance diet (standard pelleted diet Envigo 2018) and filtered tap water. The holding room was maintained at a temperature of 21±4° C. and relative humidity was 55±15% with prolonged periods below 40% RH or above 70% RH avoided as detailed in the UK Code of Practice. As a refinement, each cage contained sawdust, sizzle nest, a red house, Perspex tunnel, plastic chew stick and a nestlet so that the mice can make nests and facilitate warmth. Mice were weighed upon arrival and provided with wet mash overnight. The following morning, mice were weighed, and the mash removed.
Mice were weighed and allocated into 6 treatment groups by a statistician (as per Table 20 below). […] For groups A-D animals were placed individually in clean cages with a light dusting of sawdust immediately following psilocybin administration (0.3 mg/kg, s.c) for head twitch response assessment. Head twitches were counted by a trained observer over a 30 minute period.
Statistical significance was tested using two-way analysis of variance with treatment and observer as cofactors (Table 21 below).

T1 sequence (P35363 whole entry): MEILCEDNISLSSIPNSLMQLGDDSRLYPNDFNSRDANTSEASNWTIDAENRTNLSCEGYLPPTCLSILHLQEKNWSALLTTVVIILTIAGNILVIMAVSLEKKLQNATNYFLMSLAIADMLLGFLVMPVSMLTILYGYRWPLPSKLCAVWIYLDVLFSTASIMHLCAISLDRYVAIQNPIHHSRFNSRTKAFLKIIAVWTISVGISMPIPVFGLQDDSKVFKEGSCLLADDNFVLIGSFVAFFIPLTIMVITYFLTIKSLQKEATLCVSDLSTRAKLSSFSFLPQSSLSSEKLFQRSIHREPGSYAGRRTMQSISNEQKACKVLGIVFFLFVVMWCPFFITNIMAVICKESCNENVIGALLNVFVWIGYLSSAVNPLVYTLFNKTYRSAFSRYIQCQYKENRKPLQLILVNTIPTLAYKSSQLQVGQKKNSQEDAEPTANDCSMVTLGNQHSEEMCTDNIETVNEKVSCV

| Compound | Relative Potency [1] [mg] | other results |
| --- | --- | --- |
| Clc1ccc2c(c1)C(c1ccccc1)=NCc1nncn1-2 [Estazolam, estazolam] | 0.5 to 1 |  |
| Cc1nnc2n1-c1ccc(Cl)cc1C(c1ccccc1)=NC2 [Alprazolam, alprazolam] | 0.5 |  |
| Cc1ncc2n1-c1ccc(Cl)cc1C(c1ccccc1F)=NC2 [Midazolam, midazolam] | 3.3 |  |
| Fc1ccccc1C1=NCC(=S)N(CC(F)(F)F)c2ccc(Cl)cc21 [Quazepam, quazepam] | 13 |  |
| Cc1nnc2n1-c1ccc(Cl)cc1C(c1ccccc1Cl)=NC2 [Triazolam, triazolam] | 0.25 |  |
| O=C1Nc2ccc(Cl)cc2C(c2ccccc2Cl)=NC1O (stereo not drawn) [Lorazepam, lorazepam] | 1 |  |
| CCN(CC)CCN1C(=O)CN=C(c2ccccc2F)c2cc(Cl)ccc21 [Flurazepam, flurazepam] | 10 |  |
| O=C1CN=C(c2ccccc2Cl)c2cc([N+](=O)[O-])ccc2N1 [Clonazepam, clonazepam] | 0.25 to 0.5 |  |
| O=C(O)C1N=C(c2ccccc2)c2cc(Cl)ccc2NC1=O (stereo not drawn) [Clorazepate, clorazepate] | 7 |  |
| CN1C(=O)CN=C(c2ccccc2)c2cc(Cl)ccc21 [Diazepam, diazepam] |  | Bmax (fmoles/mg protein) (5HT2A): 271 fmoles/mg protein and 339 fmoles/mg protein and 334 fmoles/mg protein and 360 fmoles/mg protein and 314 fmoles/mg protein and 376 fmoles/mg protein; Bmax (pM) (5HT2A): 74.0 pM and 78.3 pM and 77.8 pM and 93.6 pM and 87.2 pM and 87.6 pM; psilocybin HTR, change with diazepam pretreatment (male C57BL/6J mice; 2 h post diazepam pretreatment): trend increase; HTR, change with diazepam pretreatment (male C57BL/6J mice; HTR at 10-15 and 20-25 minutes analyzed separately): significant increase; HTR, change with diazepam pretreatment (male C57BL/6J mice; over 30 minutes): trend increase |
| CN1C(=O)C(O)N=C(c2ccccc2)c2cc(Cl)ccc21 (stereo not drawn) [Temazepam, temazepam] | 10 |  |
